The values below come from patent US20050215548A1 (Cyclacel Limited, priority 2002, published 2005).

SMILES strings stand for the structures.

For the assay, the target named is T1, HDM2 (Homo sapiens, UniProt Q00987).
T1 construct: Recombinant HDM2 (1.5 μg per well) in TBS-BSA buffer
T1 sequence (Q00987 whole entry): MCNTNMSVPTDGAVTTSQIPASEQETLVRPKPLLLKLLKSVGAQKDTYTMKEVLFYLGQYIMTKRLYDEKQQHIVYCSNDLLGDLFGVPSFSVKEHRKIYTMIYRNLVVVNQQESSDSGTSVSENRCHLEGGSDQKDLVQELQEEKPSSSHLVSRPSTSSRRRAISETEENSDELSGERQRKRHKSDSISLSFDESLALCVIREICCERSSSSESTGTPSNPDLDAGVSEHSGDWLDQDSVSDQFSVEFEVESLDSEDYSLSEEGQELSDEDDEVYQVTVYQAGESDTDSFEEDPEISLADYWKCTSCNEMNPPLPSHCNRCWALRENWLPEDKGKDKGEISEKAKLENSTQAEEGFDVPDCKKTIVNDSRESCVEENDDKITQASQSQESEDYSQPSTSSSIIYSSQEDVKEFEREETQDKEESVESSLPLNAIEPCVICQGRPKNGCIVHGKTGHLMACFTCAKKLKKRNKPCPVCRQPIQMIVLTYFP
Put plainly: Fluorescence polarisation competitive HDM2 binding assay. Particulars: fluorescence polarisation format; Table 1; read-out: IC50 In vitro competitive HDM2 binding assay. The procedure: This was carried out using a 96-well microtiter plate (Costar) format. Recombinant HDM2 (1.5 μg per well) in TBS-BSA buffer (50 mM Tris pH 7.4, 150 mM NaCl, and 0.1% BSA) was incubated for 5 min at room temperature in the presence of serially diluted test compound (in TBS-BSA buffer with a final concentration of 5% DMSO). Fluorescently labelled p53-derived peptide (fluorescein-[…]NH2, 0.2 μM) was added to each well and the plate was incubated at room temperature for 45 min. The fluorescence polarisation (excitation 485 nm, emission 520 nm) of the peptide was measured. IC50 values were calculated from dose-response curves.
The fluorescence polarisation competitive HDM2 binding assay described in Example 3 was used. Furthermore, the anti-proliferative potency of the compounds against three human tumour cell lines with different genetic make-up was also determined. […] The cell lines used were as follows: AGS, gastric adenocarcinoma, wild-type p53; H1299, large cell lung carcinoma, p53 null, low HDM2; SJSA-1, primitive multipotential bone sarcoma, wild-type p53, overexpressed HDM2.
Background: In fluorescence polarisation assays a small probe gives low polarisation when free and higher when bound to something large.
The IC50 is the concentration that inhibits the measured activity by half. In the case of `O=[N+]([O-])c1cc(S(=O)(=O)Nc2cccc(C(F)(F)F)c2)sc1Cl` [Compound 1, 5-Chloro-4-nitrothiophene-2-sulfonic acid (3-trifluoromethylphenyl)amide], the concentration for half-maximal inhibition (IC50) came to 409 ± 84 µM.
Regarding `O=S(=O)(Nc1cc(C(F)(F)F)cc(C(F)(F)F)c1)c1cc(Br)c(Br)s1` [Compound 8, 4,5-Dibromothiophene-2-sulfonic acid (3,5-bis-trifluoromethylphenyl)amide], the IC50 came to 407 µM.
`O=S(=O)(Nc1ccc(C(F)(F)F)cc1)c1ccc(Cl)s1` [Compound 9, 5-Chlorothiophene-2-sulfonic acid (4-trifluoromethylphenyl)amide]: the IC50 turned out to be 102 ± 13 µM.
On to `O=S(=O)(Nc1ccc(Cl)cc1)c1ccc(Cl)s1` [Compound 10, 5-Chlorothiophene-2-sulfonic acid (4-chlorophenyl)amide], for which the IC50 came to 320 µM.
For `O=S(=O)(Nc1cc(C(F)(F)F)cc(C(F)(F)F)c1)c1ccc(Cl)s1` [Compound 11, 5-Chlorothiophene-2-sulfonic acid (3,5-bis-trifluoromethylphenyl)amide], the IC50 is 435 ± 76 µM.
On to `CSc1ncc(-c2ccc(S(=O)(=O)Nc3cc(Cl)cc(Cl)c3)s2)cn1` [Compound 12, 5-(2-Methylsulfanyl-pyrimidin-5-yl)-thiophene-2-sulfonic acid (3,5-dichlorophenyl)-amide], for which the half-maximal inhibitory concentration (IC50) stood at 374 ± 12 µM.
To `O=S(=O)(Nc1ccc(C(F)(F)F)cc1)c1ccc(-c2ncco2)cc1` [Compound 13, 4-Oxazol-2-yl-N-(4-trifluoromethylphenyl)benzenesulfonamide] belongs 494 µM; to `O=S(=O)(Nc1cc(C(F)(F)F)cc(C(F)(F)F)c1)c1ccc(-c2ncco2)cc1` [Compound 14, N-(3,5-Bis-trifluoromethylphenyl)-4-oxazol-2-yl-benzenesulfonamide], 448 ± 55 µM.
As to `O=S(=O)(Nc1ccc(C(F)(F)F)cc1)c1cc(Br)c(Cl)s1` [Compound 15, 4-Bromo-5-chlorothiophene-2-sulfonic acid (4-trifluoromethylphenyl)amide], the IC50 is 218 ± 15 µM.
Regarding `O=S(=O)(Nc1ccc(Cl)cc1)c1ccc(Br)s1` [Compound 16, 5-Bromothiophene-2-sulfonic acid (4-chlorophenyl)amide], the IC50 worked out at 290 ± 54 µM.
`O=S(=O)(Nc1cc(Cl)cc(Cl)c1)c1ccc(Br)s1` [Compound 17, 5-Bromothiophene-2-sulfonic acid (3,5-dichlorophenyl)amide]: the half-inhibitory concentration (IC50) is 291 µM.
In the case of `O=S(=O)(Nc1cc(C(F)(F)F)cc(C(F)(F)F)c1)c1ccc(Br)s1` [Compound 18, 5-Bromothiophene-2-sulfonic acid (3,5-bis-trifluoromethylphenyl)amide], the IC50 came out at 172 ± 21 µM.
In the case of `O=[N+]([O-])c1cccc(S(=O)(=O)Nc2ccc(Cl)cc2)c1` [Compound 19, N-(4-Chlorophenyl)-3-nitrobenzenesulfonamide], the IC50 was 295 ± 45 µM.
For the compound `O=[N+]([O-])c1cccc(S(=O)(=O)Nc2ccc(C(F)(F)F)cc2)c1` [Compound 20, 3-Nitro-N-(4-trifluoromethylphenyl)benzenesulfonamide], the IC50 worked out at 482 ± 26 µM.
In the case of `O=[N+]([O-])c1cccc(S(=O)(=O)Nc2cc(C(F)(F)F)cc(C(F)(F)F)c2)c1` [Compound 21, N-(3,5-Bis-trifluoromethylphenyl)-3-nitrobenzenesulfonamide], the IC50 turned out to be 209 ± 38 µM.
In the case of `O=[N+]([O-])c1cccc(S(=O)(=O)Nc2ccc(Cl)cc2Cl)c1` [Compound 22, N-(2,4-Dichlorophenyl)-3-nitrobenzenesulfonamide], the IC50 worked out at 441 ± 69 µM.
Turning to `O=S(=O)(Nc1ccc(C(F)(F)F)cc1)c1ccc(S(=O)(=O)c2ccccc2)s1` [Compound 23, 5-Benzenesulfonylthiophene-2-sulfonic acid (4-trifluoromethylphenyl)-amide], the IC50 is 146 ± 5 µM.
To `O=S(=O)(Nc1ccc(Cl)cc1)c1ccc(S(=O)(=O)c2ccccc2)s1` [Compound 24, 5-Benzenesulfonylthiophene-2-sulfonic acid (4-chlorophenyl)amide] belongs 243 ± 59 µM.
`O=S(=O)(Nc1cc(Cl)cc(Cl)c1)c1ccc(S(=O)(=O)c2ccccc2)s1` [Compound 25, 5-Benzenesulfonylthiophene-2-sulfonic acid (3,5-dichlorophenyl)amide]: the IC50 was 288 ± 39 µM.
In the case of `O=S(=O)(Nc1ccc(Cl)c(Cl)c1)c1ccc(Cl)s1` [Compound 26, 5-Chlorothiophene-2-sulfonic acid (3,4-dichlorophenyl)amide], the half-maximal inhibitory concentration (IC50) stood at 295 ± 36 µM.
With `O=S(=O)(Nc1cccc(C(F)(F)F)c1)c1cc(Br)c(Br)s1` [Compound 27, 4,5-Dibromothiophene-2-sulfonic acid (3-trifluoromethylphenyl)amide], the IC50 worked out at 199 ± 28 µM.
In the case of `O=S(=O)(Nc1ccc(Cl)c(Cl)c1)c1cc(Br)c(Br)s1` [Compound 28, 4,5-Dibromothiophene-2-sulfonic acid (3,4-dichlorophenyl)amide], the IC50 stood at 160 ± 31 µM.
As for `O=[N+]([O-])c1cc(S(=O)(=O)Nc2cc(C(F)(F)F)cc(C(F)(F)F)c2)ccc1Cl` [Compound 29, N-(3,5-Bis-trifluoromethylphenyl)-4-chloro-3-nitrobenzenesulfonamide], the IC50 stood at 129 ± 22 µM.
As to `O=[N+]([O-])c1cc(S(=O)(=O)Nc2ccc(Cl)c(Cl)c2)ccc1Cl` [Compound 30, 4-Chloro-N-(3,4-dichlorophenyl)-3-nitrobenzenesulfonamide], the concentration for half-maximal inhibition (IC50) is 427 ± 3 µM.
As for `Cn1ncc(-c2ccc(S(=O)(=O)Nc3ccc(C(F)(F)F)cc3)s2)c1C(F)(F)F` [Compound 31, 5-(1-Methyl-5-trifluoromethyl-1H-pyrazol-4-yl)-thiophene-2-sulfonic acid (4-trifluoromethylphenyl)-amide], the IC50 came out at 350 ± 10 µM.
Regarding `O=S(=O)(Nc1ccc(F)cc1)c1cc(S(=O)(=O)Nc2ccc(F)cc2)c(Cl)s1` [Compound 32, 5-Chlorothiophene-2,4-disulfonic acid bis-[(4-fluorophenyl)-amide]], the IC50 was 408 ± 31 µM.
As to `Cc1ccc(S(=O)(=O)Nc2ccc(C(F)(F)F)cc2)cc1[N+](=O)[O-]` [Compound 34, 4-Methyl-3-nitro-N-(4-trifluoromethylphenyl)benzenesulfonamide], the IC50 stood at 295 ± 23 µM.
For `Cc1ccc(S(=O)(=O)Nc2ccc(C(F)(F)F)cc2)cc1N` [Compound 36, 3-Amino-4-methyl-N-(4-trifluoromethyl-phenyl)benzenesulfonamide], the IC50 came to 429 µM.
As for `Cc1ccc(S(=O)(=O)Nc2ccc(Cl)cc2)cc1[N+](=O)[O-]` [Compound 37, N-(4-Chlorophenyl)-4-methyl-3-nitrobenzenesulfonamide], the IC50 turned out to be 294 ± 52 µM.
Consider `CC(C)CN(c1ccc(Cl)cc1)S(=O)(=O)c1cc([N+](=O)[O-])c(Cl)s1` [Compound 58, 5-Chloro-4-nitro-thiophene-2-sulfonic acid (4-chloro-phenyl)-isobutyl-amide], for which the IC50 turned out to be 249 ± 30 µM.
Take `O=[N+]([O-])c1cc(S(=O)(=O)Nc2nc3ccccc3[nH]2)sc1Cl` [Compound 59, 5-Chloro-4-nitro-thiophene-2-sulfonic acid (1H-benzo-imidazol-2-yl)-amide]: the IC50 amounted to 40 ± 1 µM.
On to `O=[N+]([O-])c1cc(S(=O)(=O)Nc2ccccc2)sc1Cl` [Compound 62, 5-Chloro-4-nitro-thiophene-2-sulfonic acid phenylamide], for which the IC50 turned out to be 67 ± 1 µM.
For `O=S(=O)(Nc1ccc(Cl)cc1)c1cc(S(=O)(=O)Nc2ccc(Cl)cc2)c(Cl)s1` [Compound 70, 5-Chloro-thiophene-2,4-disulfonic acid bis-[(4-chloro-phenyl)-amide]], the IC50 stood at 135 ± 19 µM.
As for `CCc1sc(S(=O)(=O)Nc2ccc(Cl)cc2)cc1[N+](=O)[O-]` [Compound 71, 5-Ethyl-4-nitro-thiophene-2-sulfonic acid (4-chloro-phenyl)-amide], the IC50 worked out at 237 ± 35 µM.
For `Cc1sc(S(=O)(=O)Nc2ccc(Cl)cc2)cc1S(=O)(=O)Nc1ccc(Cl)cc1` [Compound 74, 5-Methyl-thiophene-2,4-disulfonic acid bis-[(4-chloro-phenyl)-amide]], the IC50 was 123 ± 15 µM.
Consider `O=[N+]([O-])c1csc(S(=O)(=O)Nc2ccc(C(F)(F)F)cc2)c1` [Compound 76, 4-Nitro-thiophene-2-sulfonic acid (4-trifluoromethyl-phenyl)-amide], for which the IC50 was determined as 366 ± 7 µM.
`O=[N+]([O-])c1csc(S(=O)(=O)NCCc2c[nH]c3ccccc23)c1` [Compound 77, 4-Nitro-thiophene-2-sulfonic acid [2-(1H-indol-3-yl)-ethyl]-amide]: the IC50 came to 247 ± 61 µM.
For `Cn1nc(-c2ccc(S(=O)(=O)N(Cc3cccc(C(F)(F)F)c3)c3cc(C(F)(F)F)cc(C(F)(F)F)c3)s2)cc1C(F)(F)F` [Compound 78, 5-(1-Methyl-5-tri-fluoromethyl-1H-pyrazol-3-yl)-thiophene-2-sulfonic acid (3,5-bis-tri-fluoromethyl-phenyl)-(3-trifluoro-methyl-benzyl)-amide], the IC50 came to 315 ± 83 µM.
Regarding `O=[N+]([O-])c1cc(S(=O)(=O)Nc2ccc(Cl)cc2)sc1N1CCOCC1` [Compound 79, 5-Morpholin-4-yl-4-nitro-thiophene-2-sulfonic acid (4-chloro-phenyl)-amide], the IC50 came to 419 ± 31 µM.
On to `COCCNc1sc(S(=O)(=O)Nc2ccc(Cl)cc2)cc1[N+](=O)[O-]` [Compound 80, 5-(2-Methoxy-ethylamino)-4-nitro-thiophene-2-sulfonic acid (4-chloro-phenyl)-amide], for which the half-inhibitory concentration (IC50) was 154 ± 27 µM.
